The values below come from patent publication US20240299400A1, “Transcription Factor GLI1 Inhibitors and Uses Thereof” (University of Connecticut, priority 2023, published 2024).

Assay [1] has as its system GLI1 mRNA expression. In words: RT-qPCR GLI1 mRNA expression in OHCs-stimulated C3H10T1/2 MEFs. In kind it is cell-based, mouse. The note with it: mean ± SEM; for IC50: Table 4, racemates and enantiomers, read-out: RT-qPCR, IC50 C3H10T1/2. Here is the method: (§1) ASZ001 and Sufu-KO cells were seeded in 96-well plates (10,000/well, 100 μL) and incubated overnight under growth conditions. On the second day, ‘growth’ media was removed and replaced by ‘assay’ media (100 μL). On the third day, cells were treated with a serial dilution of drugs or DMSO for 48 h. mRNA expression was determined through Taqman Fast Cells-to-CT Kit (#4399003) per the manufacturer's instructions. In brief, cells were washed with chilled PBS, then mixed with lysis solution containing DNase I and incubated at RT for 5 min. Stop solution was then added to quench the lysis reagents. cDNA was then synthesized through a BioRad MyCycler following addition of reverse transcriptase. Finally, the cDNA was amplified through an ABI 7500 system following addition of Taqman Fast Universal PCR Master Mix and Taqman Gene Expression Primer. Relative gene expression levels were computed by the ΔΔCt method. Values represent mRNA expression relative to DMSO control (set at 1.0). Data were analyzed using GraphPad Prism, and IC50 values are the mean±SEM for at least two separate experiments performed in triplicate. Primers used are as follows: mouse ActB (Mm00607939_s1); mouse GLI1 (Mm00494645_ml); mouse Gli2 (Mm01293117_ml); mouse Ptch1 (Mm00436026_ml); mouse Hhip (Mm00469580_ml).
C3H10T1/2 MEFs were seeded in 24-well plates (50,000/well, 500 μL). Following 24 h incubation, the ‘growth’ media was removed and replaced with ‘assay’ media (500 μL). On the third day, cells were treated with either DMSO, OHCs, or OHCs+drugs. Following a 24 h incubation, gene expression analysis was carried out following identical protocols as described above.
For orientation: Quantitative PCR measures a nucleic acid by following its amplification.

For assay [2], the system named is GLI1 mRNA expression. In words: RT-qPCR GLI1 mRNA expression in Sufu-KO MEFs. It is filed as cell-based, mouse. The note with it: read-out: RT-qPCR, IC50 Sufu-KO.
Assay [3] relates to GLI1 mRNA expression. Briefly: RT-qPCR GLI1 mRNA expression in ASZ001 BCC cells. The note with it: read-out: RT-qPCR, IC50 ASZ001. It is filed as cell-based, mouse.
In assay [4] the target is T1, GLI1-ZFD (Homo sapiens, UniProt P08151).
T1 construct: GLI1-ZFD Expression and Purification; made in house
T1 sequence (P08151 234-388 limits assumed): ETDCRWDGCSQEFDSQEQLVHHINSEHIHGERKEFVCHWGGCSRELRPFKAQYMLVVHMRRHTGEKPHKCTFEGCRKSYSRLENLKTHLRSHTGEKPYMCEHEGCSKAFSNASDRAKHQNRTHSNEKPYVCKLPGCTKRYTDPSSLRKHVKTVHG
In words: Microscale thermophoresis (MST) binding to GLI1-ZFD. The method, then:
The protein expression and purification experiments followed the previous reported procedures [C. A. Maschinot, et al., Synthesis and evaluation of third generation vitamin D3 analogues as inhibitors of hedgehog signaling. Euro. J. Med. Chem. 162 (2019) 495-506].
GLI1 protein labeling was performed through the Monolith Protein Labeling Kit RED-NHS 2nd Generation (Nanotemper #MO-LO11) per the manufacturer's instructions. Briefly, GLI1 (100 μg, 1 mg/mL) underwent buffer exchange to remove incompatible ingredients like Tris or DTT. Proteins in the Labeling Buffer were incubated with freshly prepared dye (˜3-fold excess of dye) for 30 min at RT in the dark. Unreacted ‘free’ dye was removed by a gel-filtration column. Protein concentration and degree-of-labeling were calculated by measuring absorption at 280 nm and 650 nm. For each assay, 200 nM GLI1 in MST Buffer was mixed with compound dilution in DMSO (DMSO<5%, v/v). The mixture was then loaded to a capillary and the thermophoresis was subsequently determined through Monolith NT.115 station. Results were analyzed by MO.Affinity Analysis software and visualized by Graphpad Prism. MST Buffer: 50 mM HEPES, pH 8.3, 100 mM NaCl.
On the technique in general: In MST a laser heats a spot of the sample, and binding alters the fluorescence response.

Another assay deals with ASZ001 cells. In words: MTS anti-proliferative assay in ASZ001 cells. It is filed as cell-based, murine. The note with it: Ave ± SEM.
A further assay relates to DAOY (MB). Briefly: MTS anti-proliferative assay in DAOY cells. In kind it is cell-based. Conditions: Table 8, 48 h, mean ± SEM. Here is the method: (§2) Cell viability was assessed by MTS proliferation assay kit (Promega) per manufacturer's protocol. Briefly, 2×10^4 cells were plated in a 96-well plate in 100 μL growth medium to make the cell population at ˜80% confluence. After 24 h, 1 μL drug solution was added to each well. DMSO was used as vehicle compound. After 48 h incubation (37° C., 5% CO2), 20 μL of freshly prepared 3-(4,5-dimethylthiazol-2-yl)-5-(3-carboxymethoxyphenyl)-2-(4-sulfophenyl)-2H-tetrazolium (MTS)/phenazine methosulfate (PMS) solution was added to each well, and the plate was returned to the incubator for 1 h. Absorbance at 490 nm was recorded, and the result was analyzed by GraphPad Prism 5. GI50 values represent mean±SEM for at least two separate experiments performed in triplicate.
(Formazan colour is commonly taken as a measure of viable cells.)

A further assay deals with PANC-1 (pancreatic). In words: MTS anti-proliferative assay in PANC-1 cells. It is filed as cell-based. Conditions: Table 8, 48 h, mean ± SEM. Here is the method: as §2
The subject of a further assay is Hhip mRNA expression. In words: RT-qPCR Hhip mRNA expression in ASZ001 cells. It is filed as cell-based, mouse. The note with it: 10 μM, FIG. 4A. Here is the method:
as §1

A further assay has as its system GLI1 protein levels. Briefly: Western blot GLI1 protein expression in ASZ001 cells. Conditions: 25 μM. It is filed as cell-based, murine. Here is the method: (§3) ASZ001 cells were plated as described above and treated with drugs or vehicle control. Following incubation, cells were washed with chilled PBS and lysed with RIPA buffer containing […] PMSF protease inhibitor (Thermo Scientific #26978). Supernatant was collected following 15 min centrifugation at 12,000 rpm and 4° C. Protein concentrations from cell extracts were determined through the BCA kit (Pierce #23228) per the manufacturer's instructions. Proteins from either cell lysate or cell-free biochemical assay were then loaded on 12% SDS-PAGE. Following electrophoresis, proteins were transferred onto nitrocellulose membrane at 100 V for 120 min at 4° C. On a clean tray with constant gentle shaking, the membrane was sequentially submerged in 5% BSA for 1 h, and incubated with the primary antibody indicated overnight at 4° C. After washes with TBST, the appropriate secondary antibody was added to the tray for a 2 h incubation at RT. Chemiluminescent detection on film was visualized using ECL reagents (BioRad #1705060) and subsequently quantitated using Image J (http://imagej.nih.gov). Primary antibodies were used at 1:2000 dilution and are as follows: GLI1 (#MA5-32553); Gli2 (#PA5-79314); β-Actin (#PA1-16889). Secondary antibody (Goat anti-Rabbit, #32460) was used at a 1:5000 dilution. All antibodies were purchased from Invitrogen.

A further assay deals with GLI2 protein expression. In words: Western blot GLI2 protein expression in ASZ001 cells. In kind it is cell-based, murine. Conditions: 25 μM. The method, then:
as §3

Assay [5] has as its target T1, GLI1-ZFD. In words: Surface plasmon resonance (SPR) binding to GLI1-ZFD. The note with it: analyte 100 to 3.125 μM, 1:1 binding fit. The method, then: SPR studies were performed on a Biacore T200 as a contract service by Creative Biolabs (Shirley, NY, USA), utilizing the same procedure described previously [G. Yernale, A comprehensive review on the biological interest of quinoline and its derivatives. Bioorg. Med. Chem. 32 (2021) 115973]. Briefly, GLI1 protein was immobilized on a Series S CM5 sensor chip (GE Healthcare), and various concentrations of compound 1a/b were injected (flow rate, 30 μL/min) with a contact time of 180 s and dissociation time of 600 s. Kinetic parameters were determined by the Biacore T200 evaluation software.

[6] abbreviates: Table 4, racemates and enantiomers, mean ± SEM.
The mark [7] stands for this setting: Mus musculus, Table 7, GLI1 mRNA, Ave ± SEM.
The mark [8] stands for this setting: Mus musculus, ASZ001, Table 7, GLI1 mRNA, Ave ± SEM.
Setting [9] is: Mus musculus, ASZ001, Table 7, 48 h.

The GI50 is the concentration that inhibits growth by half. Read a low GI50 as greater sensitivity of the cells. `CN(C)c1ccccc1CN1CCCN(Cc2ccccc2N(C)C)C1c1ccncc1` [GANT61, reference compound]: in the assay with GLI1 mRNA expression [1] (C3H10T1/2 MEFs, 10 μM, relative to Hh-agonist OHCs (set as 100%)), the “% Gli1 Expression” value was determined as 72.4 ± 5.6%. In addition, the IC50 in the assay on GLI1 mRNA expression [2] (Table 5, GLI1 mRNA, Ave ± SEM) worked out at 5.3 ± 1.4 µM; in the assay on GLI1 mRNA expression [3] (Table 5, GLI1 mRNA, Ave ± SEM), 11.1 ± 1.5 µM. The compound also showed a Kd on GLI1-ZFD [4] (Table 5, Ave ± SEM) of 65.2 ± 15.2 µM. In addition, the concentration for 50% growth inhibition (GI50) came out at 57.5 ± 14 µM in the assay with ASZ001 cells (Table 5, 48 h); 27.2 ± 3.6 µM in the assay on DAOY (MB); 35.2 ± 7.5 µM in the assay on PANC-1 (pancreatic). In the assay with Hhip mRNA expression, the “expression of Hhip mRNA (in words)” value is listed as “more effective at reducing Hhip expression compared to GLI1”. For the same compound, the “GLI1 protein levels (in words)” value in the assay with GLI1 protein levels is listed as “significantly down-regulated”. For the same compound, the “GLI2 protein expression (in words)” value in the assay with GLI2 protein expression is “inactive”.
As for `CCN(CC)c1ccc(C(Nc2ccccn2)c2ccc3ccc(C)nc3c2O)cc1` (single isomer, unassigned) [Compound 1a], the IC50 is 0.71 ± 0.26 µM with GLI1 mRNA expression [1]; 1.7 ± 0.6 µM in the assay with GLI1 mRNA expression [2] (setting [6]); 1.8 ± 0.7 µM with GLI1 mRNA expression [3] (Mus musculus, ASZ001, Table 4, racemates and enantiomers, mean ± SEM). For the same compound, the Kd at GLI1-ZFD [4] (Table 4, mean ± SEM) was 12.9 ± 1.6 µM; on GLI1-ZFD [5] (listed as 1a (R)), 0.00165 s⁻¹; at GLI1-ZFD [5] (read-out: KD), 9.66 µM. The compound also displayed a Ka at GLI1-ZFD [5] (listed as 1a (R)) of 171 M⁻¹ s⁻¹. Also, the Rmax on GLI1-ZFD [5] (listed as 1a (R)) is 62.84.
On to `CCN(CC)c1ccc(C(Nc2ccccn2)c2ccc3ccc(C)nc3c2O)cc1` (single isomer, unassigned) [Compound 1b], for which the IC50 in the assay with GLI1 mRNA expression [1] came out at 0.12 ± 0.08 µM; in the assay with GLI1 mRNA expression [2] (setting [6]) it was 0.75 ± 0.38 µM; with GLI1 mRNA expression [3] (setting [6]), 1.9 ± 0.6 µM. In addition, the Kd on GLI1-ZFD [4] (Table 4, mean ± SEM) was 22.1 ± 4.3 µM; on GLI1-ZFD [5] (listed as 1b (S)), 0.00131 s⁻¹; on GLI1-ZFD [5] (read-out: KD), 18.7 µM. Besides, the Ka at GLI1-ZFD [5] (listed as 1b (S)) amounted to 70.3 M⁻¹ s⁻¹. This compound had an Rmax at GLI1-ZFD [5] (listed as 1b (S)) of 78.64.
With `Cc1ccc2ccc(C(Nc3ccccn3)c3ccccc3)c(O)c2n1` (centres unmarked) [Compound 34, 7-(Phenyl(pyridin-2-ylamino)methyl)-2-methylquinolin-8-ol], the figures for the IC50 with GLI1 mRNA expression [2] (setting [7]) and with GLI1 mRNA expression [3] (setting [8]) were 7.2 ± 2 µM and 21.3 ± 5.2 µM, respectively. In addition, the “binding to GLI1 (in words)” value at GLI1-ZFD [4] (MST binding assay) was “do not bind GLI1”. The Kd at GLI1-ZFD [4] (Table 7, Ave ± SEM) was over 125 µM. Further, the GI50 with ASZ001 cells (setting [9]) is over 100 µM; in the assay on DAOY (MB) (Homo sapiens, Daoy), over 100 µM; in the assay on PANC-1 (pancreatic) (Homo sapiens, PANC-1) it was 94.3 ± 19.5 µM.
`CCN(CC)c1ccc(CNc2ccccn2)cc1` [Compound 14, N-(4-Diethylaminobenzyl)pyridin-2-amine]: the IC50 in the assay with GLI1 mRNA expression [2] (Mus musculus, Table 5, GLI1 mRNA, Ave ± SEM) was over 25 µM; in the assay on GLI1 mRNA expression [3] (Mus musculus, ASZ001, Table 5, GLI1 mRNA, Ave ± SEM), 10 ± 3.2 µM. The Kd on GLI1-ZFD [4] (Table 5, Ave ± SEM) was over 125 µM. In addition, the 50% growth inhibitory concentration (GI50) came out at 34.9 ± 6.1 µM in the assay with ASZ001 cells (Mus musculus, ASZ001, Table 5, 48 h); 45.2 ± 7.7 µM in the assay on DAOY (MB) (Homo sapiens, Daoy); 61.9 ± 9.3 µM with PANC-1 (pancreatic) (Homo sapiens, PANC-1).
Take `Cc1ccc2ccc(C(Nc3ccccn3)c3ccc(N4CCCC4)cc3)c(O)c2n1` (centres unmarked) [Compound 43, 7-((4-(Pyrrolidin-1-yl)phenyl)(pyridin-2-ylamino)methyl)-2-methylquinolin-8-ol]: the IC50 with GLI1 mRNA expression [2] (setting [7]) was 1.2 ± 0.6 µM; in the assay with GLI1 mRNA expression [3] (setting [8]), 1.3 ± 0.3 µM. Moreover, the concentration for 50% growth inhibition (GI50) was 8.8 ± 2.4 µM in the assay with ASZ001 cells (setting [9]); 12.8 ± 1.9 µM with DAOY (MB) (Homo sapiens, Daoy); 29.6 ± 5.2 µM in the assay on PANC-1 (pancreatic) (Homo sapiens, PANC-1).
